According to PubChem BioAssay (NCI):
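Five compound concentrations were applied to cells in 96-well plates for 48 hours; endpoints were derived by simple linear interpolation of the resulting dose-response curve. Here, GI50 denotes the concentration required for 50% inhibition of growth. TGI denotes the concentration required for complete inhibition of growth.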

Legend:
Experiment in all cases: growth of human tumour cells (NCI), 48 h
MDA-MB-468 breast = system: MDA-MB-468 breast
RPMI-8226 leukemia = system: RPMI-8226 leukemia
MCF7 breast = system: MCF7 breast
SK-OV-3 ovarian = system: SK-OV-3 ovarian
SF-268 CNS = system: SF-268 CNS
EKVX NSCLC = system: EKVX NSCLC
SW-620 colon = system: SW-620 colon
PC-3 prostate = system: PC-3 prostate
SNB-19 CNS = system: SNB-19 CNS
MALME-3M melanoma = system: MALME-3M melanoma
OVCAR-3 ovarian = system: OVCAR-3 ovarian
COLO 205 colon = system: COLO 205 colon
TK-10 renal = system: TK-10 renal
NCI-H23 lung = system: NCI-H23 lung
OVCAR-8 ovarian = system: OVCAR-8 ovarian
SNB-75 CNS = system: SNB-75 CNS
T-47D breast = system: T-47D breast
LOX IMVI melanoma = system: LOX IMVI melanoma
HCC-2998 colon = system: HCC-2998 colon
UACC-62 melanoma = system: UACC-62 melanoma
HOP-62 NSCLC = system: HOP-62 NSCLC
ACHN renal = system: ACHN renal
SF-539 CNS = system: SF-539 CNS
CCRF-CEM leukemia = system: CCRF-CEM leukemia
CAKI-1 renal = system: CAKI-1 renal
A549 NSCLC = system: A549 NSCLC
OVCAR-4 ovarian = system: OVCAR-4 ovarian
NCI-H522 lung = system: NCI-H522 lung
MDA-MB-231 breast = system: MDA-MB-231 breast
DU-145 prostate = system: DU-145 prostate
SR leukemia = system: SR leukemia
BT-549 breast = system: BT-549 breast
MOLT-4 leukemia = system: MOLT-4 leukemia
HOP-92 NSCLC = system: HOP-92 NSCLC
UACC-257 melanoma = system: UACC-257 melanoma
OVCAR-5 ovarian = system: OVCAR-5 ovarian
HCT-116 colon = system: HCT-116 colon
KM12 colon = system: KM12 colon
HT29 colon = system: HT29 colon
SK-MEL-5 melanoma = system: SK-MEL-5 melanoma
786-0 renal = system: 786-0 renal
IGROV1 ovarian = system: IGROV1 ovarian
SK-MEL-28 melanoma = system: SK-MEL-28 melanoma
M14 melanoma = system: M14 melanoma
HCT-15 colon = system: HCT-15 colon
RXF 393 renal = system: RXF 393 renal
U251 CNS = system: U251 CNS
SF-295 CNS = system: SF-295 CNS
NCI-H460 lung = system: NCI-H460 lung
K-562 leukemia = system: K-562 leukemia
MDA-MB-435 = system: MDA-MB-435
A498 renal = system: A498 renal
SN12C renal = system: SN12C renal
HL-60(TB) leukemia = system: HL-60(TB) leukemia
UO-31 renal = system: UO-31 renal
SK-MEL-2 melanoma = system: SK-MEL-2 melanoma
NCI-H226 lung = system: NCI-H226 lung

## COc1cnc2c(c1)C(=O)c1c-2n(CCCn2ccnc2)c(=O)c2cc(Cl)ccc12
MDA-MB-468 breast
  GI50: 0.0252 µM
  TGI: 0.0855 µM

## O=C(COc1cccc(/C=C2\COc3ccccc3C2=O)c1)Nc1nccs1
MDA-MB-468 breast
  GI50: 1.91 µM
  TGI: 3.54 µM

## COc1cc(CSc2nc3ccc(C)cc3c(=O)n2Cc2ccccc2)cc(OC)c1OC
MDA-MB-468 breast
  GI50: 0.479 µM
  TGI: 3.01 µM

## COc1cc(/C=C/C(=O)c2ccc(S(=O)(=O)NCCNc3nc(N(C)C)nc(N4CCOCC4)n3)cc2)cc(OC)c1OC
RPMI-8226 leukemia
  GI50: 1.39 µM
  TGI: 4.66 µM
MCF7 breast
  GI50: 1.64 µM
  TGI: 3.98 µM
SK-OV-3 ovarian
  GI50: 14.3 µM
  TGI: 27.4 µM
SF-268 CNS
  GI50: 3.16 µM
  TGI: 12.5 µM
EKVX NSCLC
  GI50: 3.74 µM
  TGI: 19.8 µM
MDA-MB-468 breast
  GI50: 1.69 µM
  TGI: 3.36 µM
SW-620 colon
  GI50: 1.9 µM
  TGI: 3.75 µM
PC-3 prostate
  GI50: 3.76 µM
  TGI: 13.6 µM
SNB-19 CNS
  GI50: 4.28 µM
  TGI: 16.2 µM
MALME-3M melanoma
  GI50: 1.97 µM
  TGI: 4.31 µM
OVCAR-3 ovarian
  GI50: 2.02 µM
  TGI: 4.23 µM
COLO 205 colon
  GI50: 2.14 µM
  TGI: 5.03 µM
TK-10 renal
  GI50: 13.1 µM
  TGI: 25.9 µM
NCI-H23 lung
  GI50: 3.09 µM
  TGI: 12.3 µM
OVCAR-8 ovarian
  GI50: 2.3 µM
  TGI: 6.07 µM
SNB-75 CNS
  GI50: 1.56 µM
  TGI: 15.5 µM
T-47D breast
  GI50: 5.74 µM
  TGI: 23.3 µM
LOX IMVI melanoma
  GI50: 1.64 µM
  TGI: 3.07 µM
HCC-2998 colon
  GI50: 1.8 µM
  TGI: 3.26 µM
UACC-62 melanoma
  GI50: 2.14 µM
  TGI: 5.54 µM
HOP-62 NSCLC
  GI50: 2.66 µM
  TGI: 8.72 µM
ACHN renal
  GI50: 1.78 µM
  TGI: 3.46 µM
SF-539 CNS
  GI50: 1.81 µM
  TGI: 3.37 µM
CCRF-CEM leukemia
  GI50: 2.07 µM
  TGI: 7.25 µM
CAKI-1 renal
  GI50: 10.6 µM
  TGI: 23.3 µM
A549 NSCLC
  GI50: 3.55 µM
  TGI: 14 µM
OVCAR-4 ovarian
  GI50: 2.21 µM
  TGI: 6.35 µM
NCI-H522 lung
  GI50: 1.66 µM
  TGI: 3.25 µM
MDA-MB-231 breast
  GI50: 2.9 µM
  TGI: 7.55 µM
DU-145 prostate
  GI50: 3.31 µM
  TGI: 11.6 µM
SR leukemia
  GI50: 1.88 µM
  TGI: 7.84 µM
BT-549 breast
  GI50: 2.01 µM
  TGI: 3.73 µM
MOLT-4 leukemia
  GI50: 2.23 µM
  TGI: 9.28 µM
HOP-92 NSCLC
  GI50: 7.27 µM
  TGI: 25.7 µM
UACC-257 melanoma
  GI50: 5.86 µM
  TGI: 18.5 µM
OVCAR-5 ovarian
  GI50: 2.83 µM
  TGI: 7.57 µM
HCT-116 colon
  GI50: 1.56 µM
  TGI: 3.04 µM
KM12 colon
  GI50: 1.7 µM
  TGI: 3.33 µM
HT29 colon
  GI50: 1.72 µM
  TGI: 3.19 µM
SK-MEL-5 melanoma
  GI50: 7.9 µM
  TGI: 20.7 µM
786-0 renal
  GI50: 1.89 µM
  TGI: 3.68 µM
IGROV1 ovarian
  GI50: 2.6 µM
  TGI: 7.54 µM
SK-MEL-28 melanoma
  GI50: 2.12 µM
  TGI: 4.8 µM
M14 melanoma
  GI50: 2.18 µM
  TGI: 6.34 µM
HCT-15 colon
  GI50: 1.82 µM
  TGI: 3.91 µM
RXF 393 renal
  GI50: 1.22 µM
  TGI: 3.24 µM
U251 CNS
  GI50: 1.54 µM
  TGI: 2.92 µM
SF-295 CNS
  GI50: 3.04 µM
  TGI: 11.9 µM
NCI-H460 lung
  GI50: 3.17 µM
  TGI: 10.4 µM
K-562 leukemia
  GI50: 1.46 µM
  TGI: > 100 µM
MDA-MB-435
  GI50: 1.9 µM
  TGI: 4.02 µM
A498 renal
  GI50: 14.2 µM
  TGI: 27.4 µM
SN12C renal
  GI50: 2.72 µM
  TGI: 8.71 µM
HL-60(TB) leukemia
  GI50: 1.97 µM
  TGI: 7.34 µM
UO-31 renal
  GI50: 1.57 µM
  TGI: 3.15 µM
SK-MEL-2 melanoma
  GI50: 10.7 µM
  TGI: 22.9 µM
NCI-H226 lung
  GI50: 11.4 µM
  TGI: 28.8 µM

## CC1(C)N=C(N)N=C(N)N1c1ccc(F)c(C(F)(F)F)c1
MDA-MB-468 breast
  GI50: 1.47 µM
  TGI: > 100 µM

## CN1C(=O)CNC(=O)[C@H](NC(=O)c2nc3ccccc3cc2O)CSSC[C@H]1C(=O)NCCc1nc2ccccc2cc1O
MDA-MB-468 breast
  GI50: 1.32 µM
  TGI: 11 µM

## O=C1OC(c2ccc(O)c(Cl)c2)(c2ccc(O)c(Cl)c2)c2ccc(Br)c3cccc1c23 (tested in a mixture with another compound)
MDA-MB-468 breast
  GI50: 14.6 µM
  TGI: 34.1 µM

## C#C[C@]1(O)CC[C@H]2[C@@H]3CC=C4c5sc(-c6ccc(F)cn6)nc5CC[C@]4(C)[C@H]3CC[C@@]21C
MDA-MB-468 breast
  GI50: 2.99 µM
  TGI: 13.7 µM

## ClCCN(CCCl)c1ccc(-n2cnc3c(Cl)ncnc32)cc1
MDA-MB-468 breast
  GI50: 1.97 µM
  TGI: 4.18 µM

## CCCCCCCCCCCCCCCc1cc(O)ccc1N
MDA-MB-468 breast
  GI50: 2.04 µM
  TGI: 6.3 µM

## COc1ccc2c(c1)c(C1(c3cn(C)c4ccc(OC)cc34)C(=O)Nc3ccc(F)cc31)cn2C
MDA-MB-468 breast
  GI50: 3.4 µM
  TGI: 41.4 µM

## COC(CCP(=O)(c1ccccc1)c1ccccc1)(C(=O)c1ccccc1)c1ccccc1 (stereo not given)
MDA-MB-468 breast
  GI50: 2.05 µM
  TGI: 11.7 µM

## Brc1ccc([I+]c2ccc(Br)cc2)cc1
MDA-MB-468 breast
  GI50: 0.541 µM
  TGI: 3.52 µM

## COc1ccc2[nH]cc(-c3nc(-c4cn(C)c5ccncc45)cs3)c2c1
MDA-MB-468 breast
  GI50: 1.97 µM
  TGI: 3.77 µM

## CCC[C@H](N[C@@H]1CCc2cc(F)cc(F)c2C1)C(=O)Nc1cn(C(C)(C)CNCC(C)(C)C)cn1
MDA-MB-468 breast
  GI50: 3.48 µM
  TGI: 29.7 µM

## CCCN(CCC)c1ccc(CO)c(C)c1
MDA-MB-468 breast
  GI50: 0.962 µM
  TGI: 4.32 µM

## Cn1c(COC(=O)N2CCCCC2)nc2c(N3CCOCC3)nc(-c3ccccc3)nc21
MDA-MB-468 breast
  GI50: 0.656 µM
  TGI: 2.19 µM

## CN1CCN(c2ccc3nc(-c4cc(C(C)(C)C)c(O)c(C(C)(C)C)c4)[nH]c3c2)CC1
MDA-MB-468 breast
  GI50: 1.92 µM
  TGI: 3.76 µM

## CCCCC(=O)N/N=C/c1cc(I)cc(I)c1O
MDA-MB-468 breast
  GI50: 2.85 µM
  TGI: 18.4 µM

## Nc1cc(-c2ccccc2)ccc1O
MDA-MB-468 breast
  GI50: 42.3 µM
  TGI: > 100 µM

## COCCOC(=O)C1=C(C)NC2=C(C(=O)CC(c3ccccc3OC)C2)C1c1cccc(O)c1 (stereo not given)
MDA-MB-468 breast
  GI50: 3.92 µM
  TGI: 21.9 µM

## CS(=O)(=O)CCNCc1ccc(-c2ccc3ncnc(Nc4ccc(OCc5cccc(C(F)(F)F)c5)cc4)c3c2)o1
MDA-MB-468 breast
  GI50: 3.39 µM
  TGI: 8.6 µM

## CC(C)(C)c1ccc([I+]c2ccc(C(C)(C)C)cc2)cc1
MDA-MB-468 breast
  GI50: 0.4 µM
  TGI: 2.28 µM

## COc1cccc(/C=N\Nc2ccc([N+](=O)[O-])cn2)c1O
MDA-MB-468 breast
  GI50: 2.27 µM
  TGI: 6.64 µM

## COc1ccc(-c2n[nH]nc2-c2csc3ccccc23)cc1OC
MDA-MB-468 breast
  GI50: 0.631 µM
  TGI: 10.7 µM

## COc1ccc(O)c(C(=O)c2ccc(C(=O)O[C@@H]3CCCNC[C@H]3NC(=O)c3ccncc3)cc2)c1F
MDA-MB-468 breast
  GI50: 0.511 µM
  TGI: > 23.7 µM

## Oc1ccccc1-c1nnc(SCc2ccc(O)c3ncccc23)n1-c1ccccc1
MDA-MB-468 breast
  GI50: 0.349 µM
  TGI: 9.29 µM

## CCN(CC)c1ccc2c(c1)Oc1nc(N)c(C#N)c(N)c1C2Sc1ccc(SC)cc1 (stereo not given)
MDA-MB-468 breast
  GI50: 1.94 µM
  TGI: 3.64 µM

## C#C[C@]1(O)CC[C@H]2[C@@H]3CC=C4c5sc(N=C(N)N)nc5CC[C@]4(C)[C@H]3CC[C@@]21C
MDA-MB-468 breast
  GI50: 0.741 µM
  TGI: 2.2 µM

## Oc1ccc(CSc2nnc(-c3ccccc3)o2)c2cccnc12
MDA-MB-468 breast
  GI50: 2.21 µM
  TGI: > 100 µM

## C(=C1c2ccccc2-c2ccccc21)c1ccccn1
MDA-MB-468 breast
  GI50: 2.64 µM
  TGI: 14.7 µM

## Cn1c(=O)cc2c3c(c(NCCCO)ccc31)C(=O)c1ccccc1-2
MDA-MB-468 breast
  GI50: 2.11 µM
  TGI: 9.66 µM

## CCC(Sc1nnc2c3ccccc3n(CC)c2n1)C(=O)Nc1ccccc1OC (stereo not given)
MDA-MB-468 breast
  GI50: 1.37 µM
  TGI: 4.23 µM

## O=C(Nc1cc(C(F)(F)F)cc(C(F)(F)F)c1)Nc1ccc2oc(=O)ccc2c1
MDA-MB-468 breast
  GI50: 0.641 µM
  TGI: 4.41 µM
